This is an account of results in publication PMC6286348, “Inhibitor binding mode and allosteric regulation of Na^+-glucose symporters” (Nature Communications, 2018).

Structures are written as SMILES. Changes are numbered by the printed parent chain.

In one test the target is T1, hSGLT2 A395T (Homo sapiens, UniProt P31639, A395T).
T1 construct: expressed in transfected cells; host or cells: Xenopus laevis oocytes injected with hSGLT2 A395T cRNA and MAP17 cRNA
Put plainly: cell-based. Particulars: poor expression; n = 3 oocytes (n = 2 for dapa-aglycon). The protocol: (§1) Xenopus laevis (Nasco) oocytes (V–VI) were prepared as previously described[20] and injected with 50 nl of cRNA (1 μg/μl). […] Briefly, oocytes were incubated for 30 min in the presence of 50 μM αMDG (5 μM [^14C]αMDG) in a buffer containing (in mM) 100 NaCl, 2 KCl, 1 MgCl2, 1 CaCl2, and 10 N-(2-hydroxyethyl)piperazine-N′-(2-ethanesulfonic acid) (HEPES)/Tris (pH 7.5). After incubation, oocytes were rinsed thoroughly with ice-cold buffer containing (mM) 100 choline Cl^–, 2 KCl, 1 MgCl2, 1 CaCl2, and 10 HEPES/Tris (pH 7.5), individually lysed with 5% sodium dodecyl sulfate, and assayed for radioactivity.
(§2) Injected oocytes were incubated at 18 °C, and after 3–4 days, two electrode voltage clamp experiments were performed as previously described. Briefly, SGLT inward glucose currents were measured as a function of the external Na^+ (0–100 mM NaCl), sugar (0–100 mM αMDG), and inhibitors (0.001–100 μM). Steady-state and hSGLT1 capacitive currents were recorded using voltage steps from a holding voltage, Vh of −60 mV, to voltages in the range of −180 to +50 mV in 20 mV increments. The apparent affinity of αMDG, K0.5, was estimated from plots of the inward current as a function of the external αMDG concentration. Under our experimental conditions, K0.5 is a close approximation of the αMDG binding constant to the Na^+-bound outward conformation of SGLT. The apparent affinity for Na^+, K0.5, was estimated from plots of the αMDG inward current as a function of external Na^+ concentration. For hSGLT1 the interpretation of K0.5 is more complex owing to the presence of two Na^+ binding sites. In this case, the K0.5 is a lumped coefficient for Na^+ binding to the two sites in the outward-facing hSGLT1 conformation. […] The Na^+-to-αMDG stoichiometry was determined from the reversal potential measurements using the Gibbs free energy as previously described. The stoichiometry determinations were reinforced by estimates of αMDG and Na^+ Hill coefficients, and in some cases, by measurement of ^22Na and [^14C]αMDG uptakes under voltage clamp, [21].

Test [1] addresses T2, hSGLT2 wild-type (Homo sapiens, UniProt P31639).
T2 sequence (P31639 1-672): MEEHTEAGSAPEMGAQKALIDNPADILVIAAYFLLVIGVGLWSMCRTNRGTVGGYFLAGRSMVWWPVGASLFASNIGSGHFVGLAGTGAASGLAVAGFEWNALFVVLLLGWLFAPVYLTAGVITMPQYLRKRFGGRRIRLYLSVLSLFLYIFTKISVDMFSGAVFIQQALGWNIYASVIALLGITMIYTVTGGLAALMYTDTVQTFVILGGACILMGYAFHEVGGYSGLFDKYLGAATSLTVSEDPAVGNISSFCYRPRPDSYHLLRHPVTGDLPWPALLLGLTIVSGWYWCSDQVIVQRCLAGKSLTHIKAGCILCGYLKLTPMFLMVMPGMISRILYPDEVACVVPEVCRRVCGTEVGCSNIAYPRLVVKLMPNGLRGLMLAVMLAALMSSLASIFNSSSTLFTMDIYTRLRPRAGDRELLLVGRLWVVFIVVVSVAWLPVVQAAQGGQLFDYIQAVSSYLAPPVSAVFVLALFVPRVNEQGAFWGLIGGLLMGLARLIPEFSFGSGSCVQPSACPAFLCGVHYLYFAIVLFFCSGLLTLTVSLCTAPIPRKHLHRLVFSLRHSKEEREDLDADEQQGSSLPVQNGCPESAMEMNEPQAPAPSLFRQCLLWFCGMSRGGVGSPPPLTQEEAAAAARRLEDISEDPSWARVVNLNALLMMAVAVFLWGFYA
T2 sequence (Q13113 1-114 partner): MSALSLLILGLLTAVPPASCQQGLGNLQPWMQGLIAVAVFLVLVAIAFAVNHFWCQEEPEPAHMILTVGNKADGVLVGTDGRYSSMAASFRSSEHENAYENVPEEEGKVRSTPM
Put plainly: SGLT current measurement in oocytes, hSGLT2 wild-type (MAP17 co-injected). The following applies: 22 °C. The class given is cell-based. More on the design: expressed in transfected cells; host or cells: Xenopus laevis oocytes injected with hSGLT2 cRNA and MAP17 cRNA. As to the method:
as §1, §2

The target in a further test is T3, hSGLT1 T395A (Homo sapiens, UniProt P13866, T395A).
T3 construct: expressed in transfected cells; host or cells: Xenopus laevis oocytes injected with cRNA
T3 sequence (P13866 1-664 T395A): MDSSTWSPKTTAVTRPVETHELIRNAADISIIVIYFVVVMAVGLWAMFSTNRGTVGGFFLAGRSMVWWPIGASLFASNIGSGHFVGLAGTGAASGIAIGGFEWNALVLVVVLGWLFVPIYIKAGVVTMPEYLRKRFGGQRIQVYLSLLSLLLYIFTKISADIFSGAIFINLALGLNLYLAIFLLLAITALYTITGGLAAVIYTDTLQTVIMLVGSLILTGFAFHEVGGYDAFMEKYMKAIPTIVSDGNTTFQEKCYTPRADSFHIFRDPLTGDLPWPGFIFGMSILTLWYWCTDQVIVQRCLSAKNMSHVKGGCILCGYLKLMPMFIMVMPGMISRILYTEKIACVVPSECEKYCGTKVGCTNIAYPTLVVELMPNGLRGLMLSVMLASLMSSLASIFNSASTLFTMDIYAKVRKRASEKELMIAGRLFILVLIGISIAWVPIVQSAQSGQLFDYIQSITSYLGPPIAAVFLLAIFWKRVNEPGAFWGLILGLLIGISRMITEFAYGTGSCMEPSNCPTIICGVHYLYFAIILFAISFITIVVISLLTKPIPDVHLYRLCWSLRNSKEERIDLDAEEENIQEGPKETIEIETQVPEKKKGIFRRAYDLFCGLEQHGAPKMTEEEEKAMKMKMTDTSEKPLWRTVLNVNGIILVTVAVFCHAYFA
The experiment in a line: SGLT current measurement in oocytes, hSGLT1 T395A. Format: cell-based. Particulars: effect on αMDG currents in 30 mM αMDG, 22 °C. As to the method: as §1
(§3) Injected oocytes were incubated at 18 °C, and after 3–4 days, two electrode voltage clamp experiments were performed as previously described. Briefly, SGLT inward glucose currents were measured as a function of the external Na^+ (0–100 mM NaCl), sugar (0–100 mM αMDG), and inhibitors (0.001–100 μM). Steady-state and hSGLT1 capacitive currents were recorded using voltage steps from a holding voltage, Vh of −60 mV, to voltages in the range of −180 to +50 mV in 20 mV increments. The apparent affinity of αMDG, K0.5, was estimated from plots of the inward current as a function of the external αMDG concentration. […] The Na^+-to-αMDG stoichiometry was determined from the reversal potential measurements using the Gibbs free energy as previously described. […]

Another test addresses T4, hSGLT1 wild-type (Homo sapiens, UniProt P13866).
T4 construct: expressed in transfected cells; host or cells: Xenopus laevis oocytes injected with cRNA
T4 sequence (P13866 1-664): T3 sequence (P13866 1-664 T395A) with A395T
The experiment in a line: SGLT current measurement (two electrode voltage clamp) in oocytes, hSGLT1 wild-type. The class given is cell-based. The following applies: inhibition of αMDG currents (100 mM NaCl) or capacitive currents, 22 °C. The protocol:
as §1, §3

In another test the target is T5, hSGLT1 D268H (Homo sapiens, UniProt P13866, D268H).
T5 construct: expressed in transfected cells; host or cells: Xenopus laevis oocytes injected with cRNA
T5 sequence (P13866 1-664 D268H): T3 sequence (P13866 1-664 T395A) with D268H, A395T
Put plainly: SGLT current measurement in oocytes, hSGLT1 D268H. The class given is cell-based. The following applies: D268H vs wild type. As to the method: as §1, §3

The target of test [2] is T2, hSGLT2 wild-type. Particulars: cited from earlier work.

What is called Ki is a measure of affinity in units of concentration, obtained from inhibition or displacement. The low end stands for higher affinity, the high end for lower affinity.

T1 sequence (P31639 whole entry A395T, one chain of several): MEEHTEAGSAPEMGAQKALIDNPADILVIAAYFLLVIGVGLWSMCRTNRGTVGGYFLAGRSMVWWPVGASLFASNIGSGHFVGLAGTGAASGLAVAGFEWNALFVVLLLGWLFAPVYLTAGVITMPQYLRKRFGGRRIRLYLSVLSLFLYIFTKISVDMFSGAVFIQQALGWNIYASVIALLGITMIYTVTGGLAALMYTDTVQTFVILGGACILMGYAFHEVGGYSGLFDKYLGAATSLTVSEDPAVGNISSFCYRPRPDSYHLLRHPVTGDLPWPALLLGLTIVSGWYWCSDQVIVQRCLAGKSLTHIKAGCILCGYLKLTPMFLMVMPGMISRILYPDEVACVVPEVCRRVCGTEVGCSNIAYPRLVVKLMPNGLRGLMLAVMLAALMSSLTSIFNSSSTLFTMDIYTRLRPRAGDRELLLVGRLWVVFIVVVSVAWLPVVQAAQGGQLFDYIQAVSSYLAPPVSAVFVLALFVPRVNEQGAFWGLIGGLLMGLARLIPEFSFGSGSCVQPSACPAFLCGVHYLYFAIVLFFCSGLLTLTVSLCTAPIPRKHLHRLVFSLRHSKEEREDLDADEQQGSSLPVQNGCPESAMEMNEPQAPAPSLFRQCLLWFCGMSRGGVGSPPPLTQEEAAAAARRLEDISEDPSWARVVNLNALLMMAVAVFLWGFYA

Take `O=C(CCc1ccc(O)cc1)c1c(O)cc(O)cc1O` [phloretin]: the results for the Ki on hSGLT2 A395T and at hSGLT2 wild-type [1] were 129 ± 70 µM and 27 ± 3 µM, respectively.
Consider `CCOc1ccc(Cc2cc(O)ccc2Cl)cc1` [dapa-aglycon], for which the Ki is more than 600 µM at hSGLT2 A395T, 110 ± 30 µM at hSGLT2 wild-type [1], 187 ± 80 µM at hSGLT1 T395A and 425 ± 50 µM on hSGLT1 wild-type.
Regarding `CCOc1ccc(Cc2cc([C@@H]3O[C@H](CO)[C@@H](O)[C@H](O)[C@H]3O)ccc2Cl)cc1` [dapagliflozin], at hSGLT1 D268H, the “decrease of Ki vs wild-type hSGLT1” value is given as 13 fold. Besides, on hSGLT2 wild-type [2], the “higher potency for hSGLT2 (vs hSGLT1)” value was more than 100 fold.
